Tests used:
[1] = test system: Gastric ulcer induced by Shay's method; assay: Anti-ulcer activity - gastric ulcer in rats induced by Shay's method; type: in vivo; conditions: for Diminution of the ulcer index compared with the controls: 200 mg/kg orally five times; for Number of ulcers of class I / Number of ulcers of class II / Number of ulcers of class III / Number of ulcers of class IV / Number of ulcers of class V: 13 animals; for Percentage ulcer variation in relation to controls: Table 1; for Ulcer Index: controls 75; for Product of the number of ulcers and the numerical value attributed to the class, class I / Product of the number of ulcers and the numerical value attributed to the class, class II / Product of the number of ulcers and the numerical value attributed to the class, class III / Product of the number of ulcers and the numerical value attributed to the class, class IV / Product of the number of ulcers and the numerical value attributed to the class, class V: in parentheses
Protocol: Anti-ulcer activity - Gastric Ulcer in the rats induced by Shay's method
The anti-ulcer activity of sericic acid and sericoside was determined by administering the compounds to rats in which gastric ulcers were induced by Shay's method. The compounds were administered at the dose of 200 mg./kg. orally five times, at 42, 30, 25 and 6 hours before tying of the pylorus and immediately after the operation and as shown in Table 1 diminished the ulcer index by 48 and 45 per cent respectively, compared with the controls.
^(1) Doses administered orally 5 times, 42, 30, 25 and 6 hours prior
to and immediately after the tying of the pylorus.
^(2) In parentheses the product of the number of ulcers and the
numerical value attributed to the individual classes according to the
individual classes according to the evaluation criterion of T. O.
Keyrilainen and M. K. Paasonen (Acta Pharmacol. et. Toxicol. 13, 22, 1957

[2] = Relative solubility in chlorinated hydrocarbon and aqueous solvents; type: physicochemical; conditions: chlorinated hydrocarbon solvents versus water/aqueous solvents
[3] = test system: Ultra-violet ray erythema; assay: Activity against ultra-violet ray erythema in guinea pigs (method of Winder et al.); type: in vivo, male albino guinea pigs; conditions: for Erythema Score, 2 h / Erythema Score, 4 h / Erythema Score, 6 h / Erythema Score, 8 h / Erythema Score, 22 h: 5% gel (200 mg) one hour prior to irradiation; for Erythema Score, 2 h: 0 = no erythema, 0.5 = moderate reddening, 1 = marked reddening, 2 = obvious erythema, controls 1.15 ± 0.17; for Erythema Score, 4 h: controls 2.40 ± 0.30; for Erythema Score, 6 h: controls 2.55 ± 0.34; for Erythema Score, 8 h: controls 2.35 ± 0.18; for Erythema Score, 22 h: controls 1.05 ± 0.23; for Percentage inhibition of erythema compared with the controls, 2 h / Percentage inhibition of erythema compared with the controls, 4 h / Percentage inhibition of erythema compared with the controls, 6 h / Percentage inhibition of erythema compared with the controls, 8 h / Percentage inhibition of erythema compared with the controls, 22 h: 5% gel (200 mg), in parentheses
Protocol: Activity Against Ultra-Violet Ray Erythema
Ultra-violet ray erythema in guinea pigs was effected in accordance with the method of Winder et al. (Arch. Int. Pharmacodyn, 106, 261, 1968).
Sericoside and sericic acid were applied to the depilated skin of male albino guinea pigs (average weight 300 - 400 g) in the form of a 5% gel (using 200 mg. thereof) one hour prior to irradiation. The animals were depilated 18 hours prior to the irradiation and irradiated for 3 minutes with a 500 W. mercury vapor lamp at a distance of 18 cms.

[4] = test system: Carragenin-induced oedema; assay: Anti-inflammatory activity against carragenin-induced oedema in rats, oral administration; type: in vivo; conditions: 200 mg/kg orally for 3 days; for Percentage inhibition of the oedema: 3 hours after carragenin; for Volume of oedema (Average ± S.D.): maximum volume 3 hours after carragenin, controls 0.30 ± 0.005
Protocol: (§1) Anti-inflammatory Activity Against Carragenin-induced Oedema in Rats
(§2) The anti-inflammatory activities of sericoside and sericic acid were determined by measuring the extent to which the oedema caused by sub-plantar administration of carragenin to rats could be inhibited by prior oral and intraperitoneal administration of the substances.
^(1) Doses administered orally for 3 days; on the third day the
administration was effected two hours before the subplantar injection of
^(2) Maximum volume of the oedema measured 3 hours after the
subplantar injection of carragenin.

[5] = LD50 in mice (intraperitoneal); conditions: mouse, in vivo, ip, intraperitoneal administration
Text: The LD50 in mice (as determined with intraperitoneal administration) for sericic acid and sericoside was as follows: […]

[6] = test system: Carragenin-induced oedema; assay: Anti-inflammatory activity against carragenin-induced oedema in rats, intraperitoneal administration; type: in vivo; conditions: for Volume of the oedema (Average ± S.D.): maximum volume after 3 hours
Protocol: as §1, §2
(1) Administration endoperitoneally 30 minutes prior to the injection of
(2) Maximum volume measured after 3 hours.

Experimental wounds = assay: Cicatrizing activity upon experimental wounds in rats (method of Morton & Malone); type: in vivo; conditions: for Healing activity compared with the controls: especially in the first days of treatment; for Percentage remargination (Average ± S.D.), Day I / Percentage remargination (Average ± S.D.), Day II / Percentage remargination (Average ± S.D.), Day III / Percentage remargination (Average ± S.D.), Day V / Percentage remargination (Average ± S.D.), Day VI: topical 10% suspension in 2% CMC, 0.1 ml/rat/day; for Percentage remargination (Average ± S.D.), Day I: control 5.2 ± 1.1; for Percentage remargination (Average ± S.D.), Day II: control 12.8 ± 1.5; for Percentage remargination (Average ± S.D.), Day III: control 21.9 ± 3.1; for Percentage remargination (Average ± S.D.), Day V: control 39.63 ± 2.3; for Percentage remargination (Average ± S.D.), Day VI: control 57.4 ± 2.1
Protocol: Cicatrizing Activity Upon Experimental Wounds in Rats
The cicatrizing activity of sericic acid and sericoside upon experimental wounds was determined on rats in accordance with the method of Morton & Malone (Arch. Int. Pharmacodyn. Ther. 196, 117, 1972).
The treatment of the wounds was effected with a 10% suspension of the active principles in water containing 2% carboxymethyl cellulose (CMC). The suspensions were used in doses of 0.1 ml. for each application, one treatment being effected per day.
Note: Topical treatment effected on each of the days on which measurement
were taken (I, II, III, V, and VI).

[7] = 50 mg/kg endoperitoneally 30 minutes prior to carragenin
[8] = 50 mg/kg endoperitoneally 30 minutes prior to carragenin, controls 0.31 ± 0.006
[9] = 100 mg/kg endoperitoneally 30 minutes prior to carragenin

| Structure (SMILES) | Diminution of the ulcer index compared with the controls [1] [per cent] | Number of ulcers of class I ([1]; 200 mg/kg orally, 5 times) | Number of ulcers of class II ([1]; 200 mg/kg orally, 5 times) | Number of ulcers of class III ([1]; 200 mg/kg orally, 5 times) | Number of ulcers of class IV ([1]; 200 mg/kg orally, 5 times) | Number of ulcers of class V ([1]; 200 mg/kg orally, 5 times) | Percentage ulcer variation in relation to controls ([1]; 200 mg/kg orally, 5 times) [%] | Ulcer Index ([1]; 200 mg/kg orally, 5 times) | Product of the number of ulcers and the numerical value attributed to the class, class I ([1]; 200 mg/kg orally, 5 times) | Product of the number of ulcers and the numerical value attributed to the class, class II ([1]; 200 mg/kg orally, 5 times) | Product of the number of ulcers and the numerical value attributed to the class, class III ([1]; 200 mg/kg orally, 5 times) | Product of the number of ulcers and the numerical value attributed to the class, class IV ([1]; 200 mg/kg orally, 5 times) | Product of the number of ulcers and the numerical value attributed to the class, class V ([1]; 200 mg/kg orally, 5 times) | Relative solubility [2] | Erythema Score, 2 h [3] | Erythema Score, 4 h [3] | Erythema Score, 6 h [3] | Erythema Score, 8 h [3] | Erythema Score, 22 h [3] | Percentage inhibition of erythema compared with the controls, 2 h [3] [%] | also measured |
| --- | --- | --- | --- | --- | --- | --- | --- | --- | --- | --- | --- | --- | --- | --- | --- | --- | --- | --- | --- | --- | --- |
| CC1(C)CC[C@]2(C(=O)O)CC[C@]3(C)C(=CC[C@@H]4[C@@]5(C)C[C@@H](O)[C@H](O)[C@](C)(CO)[C@@H]5CC[C@]43C)[C@@H]2[C@@H]1O | 48 | 279 | 12 | 3 | 2 | 9 | -45 | 45 | 279 | 60 | 30 | 40 | 180 | generally more soluble in chlorinated hydrocarbon solvents than in water | 0.95 ± 0.12 | 1.80 ± 0.21 | 2.05 ± 0.22 | 1.35 ± 0.18 | 0.60 ± 0.10 | 17.4 | Percentage inhibition of erythema compared with the controls, 4 h [3]: 25%; Percentage inhibition of erythema compared with the controls, 6 h [3]: 19.6%; Percentage inhibition of erythema compared with the controls, 8 h [3]: 42.5%; Percentage inhibition of erythema compared with the controls, 22 h [3]: 42.8%; Percentage inhibition of the oedema [4]: 23%; Volume of oedema (Average ± S.D.) [4]: 0.23 ± 0.009 mL; LD50 [5]: > 1000 mg/kg; Percentage inhibition of the oedema [6, 7]: 25%; Volume of the oedema (Average ± S.D.) [6, 8]: 0.23 ± 0.008 mL; Percentage inhibition of the oedema [6, 9]: 64%; Volume of the oedema (Average ± S.D.) ([6]; 100 mg/kg endoperitoneally 30 minutes prior to carragenin, controls 0.31 ± 0.010): 0.11 ± 0.006 mL; Healing activity compared with the controls (Experimental wounds): significant healing activity; Percentage remargination (Average ± S.D.), Day I (Experimental wounds): 10.4 ± 1.3%; Percentage remargination (Average ± S.D.), Day II (Experimental wounds): 23.7 ± 2.3%; Percentage remargination (Average ± S.D.), Day III (Experimental wounds): 36.9 ± 2.7%; Percentage remargination (Average ± S.D.), Day V (Experimental wounds): 48.00 ± 1.5%; Percentage remargination (Average ± S.D.), Day VI (Experimental wounds): 59.0 ± 2.2% |
| CC1(C)CC[C@]2(C(=O)OC3O[C@H](CO)[C@@H](O)[C@H](O)[C@H]3O)CC[C@]3(C)C(=CC[C@@H]4[C@@]5(C)C[C@@H](O)[C@H](O)[C@](C)(CO)[C@@H]5CC[C@]43C)[C@@H]2[C@@H]1O (some centres unmarked) | 45 | 369 | 15 | 1 | 0 | 3 | -48 | 39.5 | 369 | 75 | 10 | 0 | 60 | generally more soluble in aqueous solvents than chlorinated hydrocarbons | 0.75 ± 0.17 | 1.70 ± 0.23 | 1.95 ± 0.22 | 1.30 ± 0.25 | 0.70 ± 0.15 | 34.8 | Number of non-ulcerated stomachs (per cent) ([1]; 200 mg/kg orally, 5 times): 7.6 per cent; Percentage inhibition of erythema compared with the controls, 4 h [3]: 29.2%; Percentage inhibition of erythema compared with the controls, 6 h [3]: 23.5%; Percentage inhibition of erythema compared with the controls, 8 h [3]: 44.7%; Percentage inhibition of erythema compared with the controls, 22 h [3]: 33.3%; Percentage inhibition of the oedema [4]: 26%; Volume of oedema (Average ± S.D.) [4]: 0.22 ± 0.010 mL; LD50 [5]: > 1000 mg/kg; Percentage inhibition of the oedema [6, 7]: 35%; Volume of the oedema (Average ± S.D.) [6, 8]: 0.20 ± 0.005 mL; Percentage inhibition of the oedema [6, 9]: 67%; Healing activity compared with the controls (Experimental wounds): significant healing activity; Percentage remargination (Average ± S.D.), Day I (Experimental wounds): 13.9 ± 1.4%; Percentage remargination (Average ± S.D.), Day II (Experimental wounds): 23.7 ± 1.5%; Percentage remargination (Average ± S.D.), Day III (Experimental wounds): 36.8 ± 2.0%; Percentage remargination (Average ± S.D.), Day V (Experimental wounds): 53.30 ± 2.8%; Percentage remargination (Average ± S.D.), Day VI (Experimental wounds): 68.2 ± 2.1% |

Reference: patent US4103025A, “Novel terpenes” (Inverni Della Beffa S.p.A., priority 1974, dated 1978)
